Laboratory results: patent US20240141291A1, “FUNCTIONAL BRAIN REGION-SPECIFIC NEURAL SPHEROIDS AND METHODS OF USE” (THE UNITED STATES OF AMERICA, AS REPRESENTED BY THE …, priority 2021, published 2024)
“Also recorded” adds a separate entry of the source.

Assays:
Type in all cases: cell-based, human
[1] = tested on: PFC-like and VTA-like spheroids; experiment: 3D Cell Titer Glo spheroid viability; conditions: no DAMGO pre-treatment vs chronic DAMGO vs DAMGO withdrawal
Procedure: 3D Cell Titer Glo: To measure spheroid cell viability across disease models and after compound treatment, the CellTiter-Glo 3D Cell Viability Assay (Promega, cat #G9681) was used according to the manufacturer's instructions. CellTiter-Glo 3D Reagent was thawed overnight at 4° C. and brought to room temperature (RT) for 20-min before use. After the FLIPR assay, 30 μL of CellTiter-Glo 3D Reagent was added to the spheroid plate and was mixed by shaking for 5-min at RT followed by a 25-min incubation period off the shaker at RT (about 25° C.). Luminescence was read using a PHERAstar FSX microplate reader (BMG LabTech) to measure amount of ATP present, indicating metabolically active cells.

VTA-like spheroids [2] = experiment: Confocal (Phenix Plus) calcium recordings, opioid use disorder model; conditions: VTA-like spheroids expressing GCaMP6f; 10 μM DAMGO; day 21
Procedure: (§1) Confocal Imaging: The Opera Phenix Plus High-Content Imaging System (Perkin Elmer) spinning disk confocal was used to record calcium activity from spheroids in individual wells. Prior to recording, the stage was pre-warmed to 37° C., and the carbon dioxide was set to 5%. Recordings were obtained both from spheroids expressing GCaMP6f along with those incubated in Cal6 dye. Recordings were captured with a 20× water immersion objective […] from the bottom of the well, and were obtained at a frame rate of 1.6 frames/sec with 480 frames total, making the recordings 5-min. The protocol was set to record well to well such that recordings were automated but taken from one spheroid at a time before recording from subsequent wells. […]
(§2) For peak detection data obtained from the Phenix Plus confocal microscope, image sequences were stored in and exported from Columbus Image Data Storage and Analysis as single plane TIFFs. […] Prior to peak detection analysis, the T-function, F div F0, in ImageJ was used to obtain calcium signals normalized to background fluorescence. […] The correlation matrix was used to describe how synchronous the calcium activity within a spheroid was, and a synchrony score was measured by calculating the average correlation coefficient across the matrix. […]

PFC-like spheroids [3] = experiment: as above; conditions: PFC-like spheroids expressing GCaMP6f; 10 μM DAMGO; day 21
Procedure: as §1, §2

VTA-like spheroids [4] = experiment: FLIPR calcium activity with Cal6 dye, control compounds / DAMGO (Example 3); conditions: VTA-like spheroids in Cal6 dye; 10 μM DAMGO; day 21
Procedure: (§3) Viruses and dyes: To assess calcium activity, the calcium dye, Cal6 (Molecular Devices), and genetically encoded calcium indicator, GCaMP6f (Addgene, cat #100836-AAV9) were used. Cal6 was used according to manufacturer's instructions and 10 mL of maintenance media was added to each vial. Two hours before activity was recorded, half of the spheroid media was exchanged for media with Cal6. The plates were covered in foil and placed in the incubator at 37° C. during the 2-hour (hr) incubation period. Since all viruses used were adeno-associated viruses (AAV), they were added to the media on day 7 to allow for 2-weeks expression prior to recording or testing. All viruses were added to the media at 2e5 multiplicity of infection (MOI). GCaMP6f infection occurred via an adeno-associated virus serotype 9 (AAV9) expressed under the CAG promoter for expression in both neurons and astrocytes. Designer receptors exclusively activated by designer drugs (DREADDs) viruses were used to stimulate and inhibit neuronal activity within spheroids. Both viruses were retrograde AAVs expressed under the human Synapsin promoter for expression in neurons and fused with an mCherry fluorophore. The DREADDs viruses either inserted the designer receptor hM4D(Gi), an inhibitory G-protein coupled receptor, or hM3D(Gq), a stimulatory G-protein coupled receptor. Clozapine-N-oxide (CNO, Tocris cat #4936) was suspended in dimethyl sulfoxide (DMSO) and used as the designer drug to activate the DREADDs viruses. CNO was tested at 1 and 10 μM, with data reported from the 1 μM concentration.
(§4) Fluorescent Imaging plate Reader (FLIPR): The FLIPR Penta (Molecular Devices) was used to assess calcium fluorescence across the 384-well plate simultaneously and to observe changes after treatment with compounds. The evening before calcium activity was measured, plates were sealed with parafilm and centrifuged at 1485×g for 2-min to get spheroids to the bottom of the well in a centered position. On the day of recording, the plate used for recording was placed in the read plate position inside of the FLIPR following the 2-hour Cal6 incubation at 37° C. Standard filter sets were used for Cal6 imaging with excitation set at 470-495 and emission at 515-575 nm. Fluorescent image reads were taken every 0.6 seconds for all plates, with exposure time of 0.03 and 50% excitation intensity. Recordings from the initial seven plates consisted of 1000 reads and were 10-min recordings with 2.5 gain, while the final two plates consisted of 500 reads (5-min recordings) with a gain of 2. Baseline recordings were taken across all plates and, if applicable, more recordings were obtained 1-, 30-, 60-, and/or 90-min after compound treatment. In between recordings, plates were wrapped in foil and placed back in the incubator at 37° C.
DAMGO was reconstituted in water at a 1 mM concentration and diluted in media to 20 µM such that spheroids would be treated with a final concentration of 10 μM after the half media exchange. Two aspects of OUD were modeled, chronic treatment along with opioid withdrawal. […]
384 Pin Tool: A 384 well pin tool (Rexroth) was used to transfer compounds simultaneously to the spheroid plate. […] Compound transfer via the 384 well pin tool occurred after the baseline recordings with the fluorescent imaging plate reader (FLIPR). […]

PFC-like spheroids [5] = experiment: FLIPR calcium activity with Cal6 dye, control compounds / DAMGO / AD compounds (Example 3); conditions: 10 μM DAMGO; for effect on peak count and peak spacing: recording 30-min later, then naloxone
Procedure: as §3, §4
DAMGO was reconstituted in water at a 1 mM concentration and diluted in media to 20 µM such that spheroids would be treated with a final concentration of 10 μM after the half media exchange. Two aspects of OUD were modeled, chronic treatment along with opioid withdrawal. For spheroids subjected to chronic DAMGO treatment, 20 μM DAMGO in maintenance media was added via half media exchange beginning on day 10, with treatments occurring every other day for 10 days, giving a total of five treatments.
384 Pin Tool: A 384 well pin tool (Rexroth) was used to transfer compounds simultaneously to the spheroid plate. Prior to compound transfer, the pin tool went through four wash cycles where pins were rinsed with dimethyl sulfoxide (DMSO), followed by methanol, then deionized (DI) water, to ensure the pins were clean. Compound transfer via the 384 well pin tool occurred after the baseline recordings with the fluorescent imaging plate reader (FLIPR). Here, 60 nL of compound suspended in DMSO was transferred to 60 µL of media in each well, diluting the compounds by 1000-fold and giving a final DMSO concentration of 0.1%.

C[C@@H](NC(=O)[C@@H](N)Cc1ccc(O)cc1)C(=O)NCC(=O)N(C)[C@@H](Cc1ccccc1)C(=O)NCCO [DAMGO, [D-Ala^2, N-MePhe^4, Gly-ol]-enkephalin]
spheroid viability (3D CTG) [1]: spheroid viability was similar
effect of chronic DAMGO / DAMGO withdrawal on baseline peak count, amplitude, width, synchrony (confocal) (VTA-like spheroids [2]): increased by DAMGO withdrawal in VTA-like spheroids; also recorded: DAMGO withdrawal reduced peak amplitude in VTA-like but not PFC-like spheroids; also recorded: Chronic DAMGO increased peak width in PFC-like but not VTA-like spheroids; also recorded: DAMGO withdrawal did not impact peak width in either spheroid type; also recorded: DAMGO withdrawal reduced synchrony in VTA-like spheroids
effect of chronic DAMGO / DAMGO withdrawal on baseline peak count, amplitude, width, synchrony (confocal) (PFC-like spheroids [3]): peak count was reduced by chronic DAMGO treatment in PFC-like spheroids; also recorded: synchrony was unaffected in PFC-like spheroids; also recorded: DAMGO withdrawal reduced peak amplitude in VTA-like but not PFC-like spheroids; also recorded: Chronic DAMGO increased peak width in PFC-like but not VTA-like spheroids; also recorded: DAMGO withdrawal did not impact peak width in either spheroid type
effect of chronic DAMGO / DAMGO withdrawal on baseline peak count, amplitude, width (FLIPR) (VTA-like spheroids [4]): chronic DAMGO treatment increased peak count in VTA-like spheroids; also recorded: unaffected in VTA-like spheroids; also recorded: reduced in VTA-like spheroids
effect on peak count and peak spacing (PFC-like spheroids [5]; PFC-like chronic DAMGO-treated spheroids): chronic DAMGO-treated spheroids treated with either DMSO or DAMGO showed significant reductions in peak count
effect on peak count and peak spacing (PFC-like spheroids [5]; PFC-like control spheroids): significant reduction in peak count was observed in control spheroids acutely treated with DAMGO; also recorded: acute DAMGO treatment in control spheroids increased peak spacing
effect of chronic DAMGO / DAMGO withdrawal on baseline peak count, amplitude, width (FLIPR) (PFC-like spheroids [5]; PFC-like spheroids in Cal6 dye, day 21): peak count was reduced by chronic DAMGO in PFC-like spheroids; also recorded: Peak amplitude was reduced by DAMGO withdrawal in PFC-like spheroids; also recorded: peak width was increased by chronic DAMGO in PFC-like spheroids
